Legend:
[1] = system: Interferon Gamma; experiment: Interferon gamma (IFN-γ) induction in mouse blood serum, solid phase immunoassay; type: in vivo; conditions: BALB/C mice, subcutaneous single dose 1 mg alloferon/kg; serum 3 hours after administration
Method: Furthermore, cytokine induction caused by using both components (alloferon and the zinc salt), where administered to a body separately in time, were determined. Six samples were tested: • 1. Alloferon (Allokin-alfa, Lyophilisate for Solution for Subcutaneous Administration)—a reference product, • 2. Composition 1, • 3. Composition 2, • 4. […] 0.9% sodium chloride solution—control.
(§1) Samples 1, 2, 3, and 5 contained alloferon at the concentration of 1 mg/mL. The alloferon solution in Samples 1 and 5 was produced by dissolving the contents of an Allokin-alfa ampoule (1 mg of alloferon) in 1 mL of 0.9% sodium chloride solution. […] To determine the background content of IFN-γ and IL-18 in the subject animals' blood serum, a 0.9% sodium chloride solution was used.
(§2) The experiments enrolled BALB/C mice, females, weighing 16 to 22 grams, 18 weeks of age, divided into 6 groups of 15 individuals each. The samples were administered subcutaneously in a single dose of 1 mg of alloferon per 1 kg laboratory animal body weight. Sample 5 components were administered separately, one 15 minutes after the other.

[2] = system: Interleukin 18; experiment: Interleukin 18 (IL-18) induction in mouse blood serum; type: in vivo; conditions: BALB/C mice, subcutaneous single dose 1 mg alloferon/kg; serum 36 hours after administration
Method: Six samples were tested: • 1. Alloferon (Allokin-alfa, Lyophilisate for Solution for Subcutaneous Administration)—a reference product, • 2. Composition 1, • 3. Composition 2, • 4. […] 0.9% sodium chloride solution—control.
as §1, §2
In case of the control group, the confidence interval was calculated based on measurements of the same sample dilutions. For the experimental groups, the confidence interval was calculated based on three samples from three animals for each measuring point.

[3] = system: Herpes Simplex Virus Type 2 (HSV-2) Strain G (ATCC VR-734); experiment: Protective action in a model of herpetic infection in mice; type: in vivo, White outbred mice; conditions: HSV-2 vaginal infection, 1.25 mg/kg (Acyclovir 50 mg/kg); for N14, number of animal deaths in a group on the 14th day after infection: 20 mice per group; for N14, number of animal deaths in a group on the 14th day after infection / M, mortality rate: i.p. once a day for 3 days; for M, mortality rate / IP, index of protection: 14 days follow-up; for IP, index of protection: relative to control mortality 60.0%
Method: The developed compositions were assessed for their protective action on the basis of a herpetic infection model. The following reference products were used: 1/Allokin-alfa, Lyophilisate for Solution for Subcutaneous Administration, a medicinal product used to treat genital herpes, containing 1 mg of alloferon per ampoule; 2/Acyclovir, a medicinal product used in the conventional herpes therapy.
White outbred mice (females) weighing 16 to 20 g were received from Rappolovo Nursery (Leningrad Oblast) and maintained on a standard diet under controlled vivarium conditions. The animals for the experimental groups were selected on a random basis. The animals were divided into 5 groups of 20 animals each: four experimental groups in which the animals received injections of Composition 1, Composition 2, Allokin-alfa, and Acyclovir, respectively, and one control group in which the animals received injections of 0.9% sodium chloride solution.
The study was made with the use of Herpes Simplex Virus Type 2 (HSV-2) Strain G (ATCC VR-734). The infection was introduced vaginally. Vaginal epithelium was injured with the use of a vaginal smearing scarifier, after which the animals were infected with the virus at a dose of 1.7×10^5TCID50 in the amount of 30 mcL.
Allokin-alfa and Compositions 1 and 2 were administered to the animals intraperitoneally at a dose of 1.25 mg/kg once a day for 3 days after the infection introduction. Acyclovir was administered in accordance with the same scheme at a dose of 50 mg/kg. The control group received injections of 0.9% sodium chloride solution.
The animals were followed up for 14 days. Mortality in the control and experimental groups were recorded on a daily basis. Based on the data so obtained, mortality rates M (the ratio of animal deaths over 14 days to the total number of infected animals in a group) and the index of protection IP (the ratio between the difference of the control and experimental groups' mortality rates and the control group lethality rate) were calculated.

## CC(=O)[O-].CC(=O)[O-].[Zn+2] [Zinc acetate]
[1]
  Interferon Gamma, after 3 hours (mg/mL of blood serum): 82 ± 8 mg/mL of blood serum
[2]
  Interleukin 18, after 36 hours (mg/mL of blood serum): 194 ± 12 mg/mL of blood serum

## Nc1nc2c(ncn2COCCO)c(=O)[nH]1 [Acyclovir]
[3]
  N14, number of animal deaths in a group on the 14th day after infection: 3
  M, mortality rate: 15.0%
  IP, index of protection: 75.0%

## alloferon
[1]
  Interferon Gamma, after 3 hours (mg/mL of blood serum): 95 ± 16 mg/mL of blood serum
[3]
  N14, number of animal deaths in a group on the 14th day after infection: 4
  M, mortality rate: 20.0%
  IP, index of protection: 66.7%
[2]
  Interleukin 18, after 36 hours (mg/mL of blood serum): 360 ± 20 mg/mL of blood serum

— US20220265706A1, “PHARMACEUTICAL COMPOSITION CONTAINING COMPLEXES OF ALLOFERON AND ZINC” (priority 2019, published 2022)
